Reference: patent US5536723A, “S-nitroso derivatives of hydrazinoacetic acids, 1-[(acylthio and (mercapto)-1-oxoalkyl]-1,2,34-Tetrahydroquinoline-2-carboxylic acids and alanyl prolines and isoquinolines” (Brigham & Women's Hospital, priority 1994, dated 1996)
“Also recorded” adds a separate entry of the source. Blank lines part the entries; values can stand above or below the molecule they belong to.

Tests used:
[1] = tested on: bovine femoral artery, contraction to angiotensin I; assay: contraction of the bovine femoral artery to angiotensin I; details: for Contraction to Agonist: Angiotensin I
Experimental: The data are expressed as a percentage of the maximal response to norepinephrine (10^-6 M) and are shown as mean ±SEM in each group (n=7).
(§1) Blood Vessel Preparation. Bovine coronary or femoral arteries were obtained from an abattoir immediately after sacrifice of two- to four-week-old calves. Immediately after removal, the vessel was placed in ice-cold physiologic salt solution (PSS) containing 118.3 mM NaCl, 4.7 mM KCl, 2.5 mM CaCl2, 1.2 mM MgSO4, 1.2 mM KH2 PO4, 25.0 mM NaHCO3, 11.1 mM glucose, and 0.026 mM calcium disodium (ethylenedinitrilo)-tetraacetate. The vessels were then cleaned of adventitial tissue and cut into rings of approximately 5 mm lengths. When called for by the protocol, endothelium was removed from a ring by gently rubbing the luminal surface with a watchmaker's forceps. Vascular rings with intact endothelium were then suspended in organ chambers containing 25 ml of PSS at 37° aerated with 95% O2 -5% CO2. The rings were connected to force transducers (Grass FT03C, Quincy, Mass.) and changes in isometric force recorded continuously (Grass Polygraph Model 79B) over a period of 90 minutes. The optimal length-tension relationship was determined for each ring by observing the response to 10^-6 M norepinephrine after increments in tension of 0.5 gm. The functional integrity of the endothelium was assessed by contracting the vessel with 10^-6 M norepinephrine and then observing the response to 3×10^-7 M acetylcholine chloride.

[2] = tested on: bovine femoral artery, contraction to angiotensin II; assay: contraction of the bovine femoral artery to angiotensin II; details: for Contraction to Agonist: Angiotensin II
Experimental: The data are expressed as a percentage of the maximal response to norepinephrine (10^-4 M) and are shown as mean ±SEM in each group (n=6).
as §1

bovine femoral artery = assay: relaxation of isolated bovine femoral artery rings contracted with norepinephrine; details: methylene blue 10^-5 M; FIG. 4
Experimental: FIG. 2 depicts a graph showing the effect of S-nitrosocaptopril on the contraction of bovine femoral arteries to norepinephrine.
as §1
Vascular ring segments with intact endothelium were […] contracted with a concentration of norepinephrine inducing a half-maximal response. After a stable contraction had been achieved, the tissue was exposed to increasing concentrations of S-nitrosocaptopril in cumulative half-log increments. […] The apparent IC50 is approximately 1 μM.

bovine coronary artery = assay: relaxation of isolated bovine coronary artery rings contracted with potassium chloride
Excerpt: FIG. 5 depicts a graph showing the relaxation to sodium nitroprusside in the bovine coronary artery in the presence (o; n=7) or absence (; n:12) of a subthreshhold dose of S-nitrosocaptopril. The data are expressed as a percentage of the initial tension generated by potassium chloride (4×10^-2 M; coronary arteries) and are shown as mean ±SEM in each group.
as §1
Thus, to study vasodilating agents in this tissue the vessels were first contracted with potassium chloride (40 mM). Relaxations are expressed as a percent of the concentration to 40 mM potassium chloride.
Relaxations to S-nitrosocaptopril were inhibited by the antagonist of soluble guanylate cyclase, methylene blue (FIG. 4). Sodium nitroprusside induced dose-dependent relaxations of contractions to potassium chloride. The relaxation to sodium nitroprusside was inhibited by subthreshold doses of S-nitrosocaptopril (FIG. 5).

[3] = -Log M 6, Sar 10^-7 M, * p < 0.05
[4] = -Log M 6.5, Sar 10^-7 M, * p < 0.05
[5] = -Log M 7, Sar 10^-7 M, * p < 0.05
[6] = -Log M 7.5, Sar 10^-7 M, * p < 0.05
[7] = -Log M 8, Sar 10^-7 M, * p < 0.05
[8] = saralasin, lower concentrations than 10^-8 M

Molecule: CNCC(=O)N[C@@H](CCCN=C(N)N)C(=O)N[C@H](C(=O)N[C@@H](Cc1ccc(O)cc1)C(=O)N[C@H](C(=O)N[C@@H](Cc1cnc[nH]1)C(=O)N1CCC[C@H]1C(=O)N[C@@H](C)C(=O)O)C(C)C)C(C)C [saralasin]
Contraction to Agonist [1, 3]: 0.9 ± 0.9 percentage of the maximal cont
Contraction to Agonist ([1]; -Log M 6, Sar 10^-8 M): 35.5 ± 7.0 percentage of the maximal cont
Contraction to Agonist ([1]; -Log M 6, Sar 10^-9 M): 25.6 ± 13.0 percentage of the maximal cont
Contraction to Agonist [1, 4]: 0 percentage of the maximal cont
Contraction to Agonist ([1]; -Log M 6.5, Sar 10^-8 M): 35.7 ± 22.1 percentage of the maximal cont
Contraction to Agonist ([1]; -Log M 6.5, Sar 10^-9 M): 31.4 ± 10.7 percentage of the maximal cont
Contraction to Agonist [1, 5]: 0 percentage of the maximal cont
Contraction to Agonist ([1]; -Log M 7, Sar 10^-8 M, * p < 0.05): 19.6 ± 7.0 percentage of the maximal cont
Contraction to Agonist ([1]; -Log M 7, Sar 10^-9 M): 33.0 ± 12.6 percentage of the maximal cont
Contraction to Agonist [1, 6]: 0 percentage of the maximal cont
Contraction to Agonist ([1]; -Log M 7.5, Sar 10^-8 M, * p < 0.05): 16.3 ± 9.4 percentage of the maximal cont
Contraction to Agonist ([1]; -Log M 7.5, Sar 10^-9 M): 22.6 ± 10.1 percentage of the maximal cont
Contraction to Agonist [1, 7]: 0 percentage of the maximal cont
Contraction to Agonist ([1]; -Log M 8, Sar 10^-8 M): 7.9 ± 7.9 percentage of the maximal cont
Contraction to Agonist ([1]; -Log M 8, Sar 10^-9 M): 3.9 ± 1.5 percentage of the maximal cont
Contraction to Agonist ([1]; -Log M 8.5, Sar 10^-7 M): 0 percentage of the maximal cont
Contraction to Agonist ([1]; -Log M 8.5, Sar 10^-8 M): 1.6 ± 1.6 percentage of the maximal cont
Contraction to Agonist ([1]; -Log M 8.5, Sar 10^-9 M): 0 percentage of the maximal cont
Contraction to Agonist ([1]; -Log M 9, Sar 10^-7 M): 0 percentage of the maximal cont
Contraction to Agonist ([1]; -Log M 9, Sar 10^-8 M): 0 percentage of the maximal cont
Contraction to Agonist ([1]; -Log M 9, Sar 10^-9 M): 0 percentage of the maximal cont
effect of saralasin on contractions to angiotensin I (in words) ([1]; saralasin 10^-7 M): attenuated contractions
effect of saralasin on contractions to angiotensin I (in words) ([1]; saralasin 10^-8 M): inhibited contractions to angiotensin I
effect of saralasin on contractions to angiotensin I (in words) [1, 8]: no effect
Contraction to Agonist [2, 3]: 6.0 percentage of the maximal cont
Contraction to Agonist ([2]; -Log M 6, Sar 10^-8 M): 32.8 ± 21.0 percentage of the maximal cont
Contraction to Agonist ([2]; -Log M 6, Sar 10^-9 M): 51.8 ± 18.8 percentage of the maximal cont
Contraction to Agonist [2, 4]: 9.2 ± 5.3 percentage of the maximal cont
Contraction to Agonist ([2]; -Log M 6.5, Sar 10^-8 M): 32.8 ± 20.4 percentage of the maximal cont
Contraction to Agonist ([2]; -Log M 6.5, Sar 10^-9 M): 51.8 ± 18.8 percentage of the maximal cont
Contraction to Agonist [2, 5]: 3.2 ± 1.8 percentage of the maximal cont
Contraction to Agonist ([2]; -Log M 7, Sar 10^-8 M): 32.4 ± 17.3 percentage of the maximal cont
Contraction to Agonist ([2]; -Log M 7, Sar 10^-9 M): 51.8 ± 18.8 percentage of the maximal cont
Contraction to Agonist [2, 6]: 2.8 ± 2.8 percentage of the maximal cont
Contraction to Agonist ([2]; -Log M 7.5, Sar 10^-8 M): 24.0 ± 13.8 percentage of the maximal cont
Contraction to Agonist ([2]; -Log M 7.5, Sar 10^-9 M): 43.4 ± 16.9 percentage of the maximal cont
Contraction to Agonist [2, 7]: 1.7 ± 1.7 percentage of the maximal cont
Contraction to Agonist ([2]; -Log M 8, Sar 10^-8 M): 10.7 ± 8.1 percentage of the maximal cont
Contraction to Agonist ([2]; -Log M 8, Sar 10^-9 M): 34.0 ± 12.9 percentage of the maximal cont
Contraction to Agonist ([2]; -Log M 8.5, Sar 10^-7 M): 0 percentage of the maximal cont
Contraction to Agonist ([2]; -Log M 8.5, Sar 10^-8 M): 0.9 ± 0.9 percentage of the maximal cont
Contraction to Agonist ([2]; -Log M 8.5, Sar 10^-9 M): 18.5 ± 9.6 percentage of the maximal cont
Contraction to Agonist ([2]; -Log M 9, Sar 10^-7 M): 0 percentage of the maximal cont
Contraction to Agonist ([2]; -Log M 9, Sar 10^-8 M): 0 percentage of the maximal cont
Contraction to Agonist ([2]; -Log M 9, Sar 10^-9 M): 2.4 ± 1.2 percentage of the maximal cont
effect of saralasin on contractions to angiotensin II (in words) ([2]; saralasin 10^-7 M): attenuated contractions
effect of saralasin on contractions to angiotensin II (in words) [2, 8]: no effect

Molecule: CN(C)c1ccc2nc3ccc(=[N+](C)C)cc-3sc2c1 [methylene blue]
effect of methylene blue on relaxations to S-nitrosocaptopril, femoral artery (in words) (bovine femoral artery): significantly less than control (p<0.05)
effect of methylene blue on relaxations to S-nitrosocaptopril, coronary artery (in words) (bovine coronary artery; methylene blue 10^-5 M, FIG. 4): significantly less than control (p<0.05); also recorded: inhibited

Molecule: angiotensin I: agonist; converted by ACE to angiotensin II by removal of the carboxy terminal His-Leu (DRVYIHPFHL; Angiotensin-1; UniProt P01019 25-34, looked up)
Contraction to Agonist ([1]; -Log M 6, Sar 0 (control)): 45.3 ± 13.5 percentage of the maximal cont
Contraction to Agonist ([1]; -Log M 6.5, Sar 0 (control)): 42.5 ± 13.4 percentage of the maximal cont
Contraction to Agonist ([1]; -Log M 7, Sar 0 (control)): 38.6 ± 15.9 percentage of the maximal cont
Contraction to Agonist ([1]; -Log M 7.5, Sar 0 (control)): 27.7 ± 12.7 percentage of the maximal cont
Contraction to Agonist ([1]; -Log M 8, Sar 0 (control)): 12.6 ± 11.4 percentage of the maximal cont
Contraction to Agonist ([1]; -Log M 8.5, Sar 0 (control)): 3.3 ± 5.9 percentage of the maximal cont
Contraction to Agonist ([1]; -Log M 9, Sar 0 (control)): 0 percentage of the maximal cont
maximum contraction response to angiotensin I ([1]; n=11): 4.4 ± 1.6 g

Molecule: [Cl-].[K+] [potassium chloride]
stable contraction induced by potassium chloride (bovine coronary artery; 40 mM): 7.3 ± 4.3 g

EC50 ([2]; n=6, read-out: average ED50 of contraction to angiotensin II): 8.3 nM
Molecule: angiotensin II: powerful pressor agent; agonist (DRVYIHPF; Angiotensin-2; UniProt P01019 25-32, looked up)
Contraction to Agonist ([2]; -Log M 6, Sar 0 (control)): 57.9 ± 3.1 percentage of the maximal cont
Contraction to Agonist ([2]; -Log M 6.5, Sar 0 (control)): 57.1 ± 3.1 percentage of the maximal cont
Contraction to Agonist ([2]; -Log M 7, Sar 0 (control)): 47.2 ± 2.9 percentage of the maximal cont
Contraction to Agonist ([2]; -Log M 7.5, Sar 0 (control)): 40.3 ± 2.6 percentage of the maximal cont
Contraction to Agonist ([2]; -Log M 8, Sar 0 (control)): 28.8 ± 1.7 percentage of the maximal cont
Contraction to Agonist ([2]; -Log M 8.5, Sar 0 (control)): 11.8 ± 1.1 percentage of the maximal cont
Contraction to Agonist ([2]; -Log M 9, Sar 0 (control)): 0 percentage of the maximal cont
maximum contraction response to angiotensin II ([2]; n=6): 6.4 ± 2.5 g
maximum response to angiotensin II ([2]; without S-nitrosocaptopril, n=5): 55.8±6.9 % of the maximal response to norepinephrine
